Patent US8283308B2, “Copolymer-stabilized emulsions” (The Regents of the University of California, priority 2007, dated 2012)

How the values were obtained:
Assay type in all cases: physicochemical
[1] = Oil/water interfacial tension, Du Nouy ring method; settings: 10 cSt PDMS / 0.1 mM block copolypeptide solution, pull rate 0.01 mm/s, 25° C.
[2] = Emulsion droplet sizes from cryo-TEM (CTEM) images
Method: For certain applications, further size separation may be desired. For these applications, we could also use centrifugation to fractionate the emulsion and isolate emulsions of a desired size range. To accomplish such separation, a 1.5 mM K40rL20 emulsion (φ=0.2) that had been passed through the microfluidic homogenizer for six passes (N=6) was placed in a desktop centrifuge set to a low speed of 3,500 rpm (revolutions per minute) for 4 hours. Due to the differences in mass densities of the droplet structures with respect to the continuous liquid phase, the larger droplets rose to the top as a plug more rapidly and could be separated out easily from the extremely dilute suspension of smaller droplets below (i.e. the remnants). We were able to separate out larger droplets that had diameters greater than 300 nm. The remnant suspension had droplet diameters less than 300 nm, therefore, a higher speed centrifuge was needed to further fractionate the sizes of the droplets. The remnant suspension was placed in an ultracentrifuge and centrifuged […] at 20,000 rpm.
A 1.5 mM K40rL20 emulsion (prepared as above) was centrifuged in a 15 mL plastic centrifuge tube for 24 h at 3,500 rpm using an IEC HN-S tabletop centrifuge. A 0.5 mm plug formed, and was separated from the remnants. A plug was formed at the top of the tube (droplet sizes >300 nm, by cryo-TEM), due the different densities of silicone oil and water (0.973 g/mL for 10 cSt PDMS silicone oil vs. 1.0 g/mL for water). The plug was isolated from the rest of the sample, designated as primary remnants, and these primary remnants were further fractionated at 20,000 rpm for 4 hrs using a Beckman L8-55 ultracentrifuge. A plug formed on the top of the suspension (droplet sizes ranging from 30 nm to 200 nm, by cryo-TEM) along with droplets remaining in suspension as secondary remnants (droplet sizes ranging from 10 nm to 30 nm, by cryo-TEM).
Each emulsion sample was diluted tenfold with DI water prior to imaging. An aliquot of each sample (5 μL) was then placed on a carbon grid. The grid was loaded into a Vitrobot (FEI) automated vitrification device for automated sample blotting and vitrification in liquid ethane. The grid was stored under liquid nitrogen and then placed, using a cold stage, in a Phillips Tecnai F20 electron microscope with an accelerating voltage of 120 kV. Images were obtained on a Teitz SCX slow-scan CCD detector coupled to the Leginon software package.
PDMS silicone oil (10 cSt) was added to give the desired volume fraction A of oil to the continuous phase (0.05<φ<0.50). A microscale emulsion (i.e. “premix” emulsion) was prepared by either mixing for 1 minute using a handheld homogenizer (IKA Ultra-Turrax T8 with the S8N-8G dispersing element) or by mixing for 10 seconds using a handheld ultrasonic tip homogenizer (Cole-Parmer 4710 Series Model ASI at an output of 35-40%). This emulsion was then passed through a M-110S Microfluidizer® Processor with a 75 μm stainless steel/ceramic interaction chamber and an input air pressure p=130 psi. The emulsion was collected at the product outlet, and then passed through the microfluidic homogenizer repeatedly for a total of six passes (N=6), which decreased the average droplet radius (e.g. of the single droplets in a simple emulsion and of the outer and inner droplets in a double emulsion) and increased the monodispersity of the droplets in the emulsions. A similar protocol was used for emulsions generated using other block copolypeptide surfactants (Table 1. FIGS. 7A-7C). The ratio given by the inner droplet radius divided by the outer droplet radius (labeled as “I/O ratio”) was relatively uniform for different hydrophobic chain lengths at approximately 0.5 (Table 1, FIG. 7D). Other amphiphilic block copolypeptides, where either the lysine or leucine domains were substituted with different hydrophilic or hydrophobic residues, respectively, were also found to form double emulsions (FIGS. 8A-8D).

[3] = Emulsification activity, emulsion type and stability
Method: The freeze-dried K40rL10 copolypeptide was first dissolved in de-ionized water at the desired concentration. The range of block copolypeptide concentrations, C, varied from 1.0×10^−4 mM to 1.7 mM. Silicone oil (10 cSt, Gelest PDMS) was added to give the desired volume fraction φ of oil to the continuous phase (0.01≦φ≦0.8). A premix emulsion was prepared by applying shear using either a handheld homogenizer (IKA Ultra-Turrax T8 with the S8N-8G dispersing element) or a handheld ultrasonic homogenizer (Cole-Palmer 4710 Series Model ASI at an output of 35-40%). This premix emulsion was then passed through a M-110S Microfluidizer® Processor with a 75 μm stainless steel/ceramic interaction chamber and an input air pressure p=130 psi. The emulsion was collected at the product outlet of the microfluidic homogenizer, and then passed through the microfluidic homogenizer five more passes (N=6 total), which decreased the average droplet radius and increased the monodispersity of the sample. We have formed double emulsions of copolypeptide, water, and various oils other than 10 cSt and 100 cSt silicone oil, including soybean oil and methyl oleate.
Diblock copolypeptides were screened for emulsification activity by adding PDMS silicone oil to aqueous Kx(rac-L)y solutions (Table 1, FIGS. 2A-2B, 11A). […]

[4] = Critical aggregation concentration by pyrene fluorescence; settings: pyrene fluorescence at 20° C.
[5] = Emulsion droplet size by dynamic light scattering (DLS); settings: N=6, p=130 psi, φ=0.20
Method: The diameters of emulsion droplets were estimated by dynamic light scattering (DLS) with a Photocor-FC board and software. The samples were diluted to obtain an intensity reading of between 1×10^5 and 6×10^5. Each measurement was performed at a scattering angle of 90° for 500 seconds, with linear channel spacing and an adjustable baseline. The fitting procedure used was cumulant analysis with an adjustable baseline to fit the data and calculate average droplet radii.

[6] = sample fractionated from larger droplets by centrifugation followed by ultracentrifugation

## Poly(L-lysine-HBr)40-b-poly(rac-leucine)20 [K40(rac-L)20]
[1]
  Interfacial Tension (dyne/cm): 25.3 dyne/cm
[2]; 1.5 mM emulsion, 3,500 rpm
  droplet diameters of remnant suspension after low speed centrifugation: less than 300 nm
[2]; after passage six times through microfluidic homogenizer
  droplet diameters: ten to a few hundred
[2]; average of at least 50 droplets from CTEM, N=6, p=130 psi, C=1.0 mM, φ=0.20
  Inner/Outer Diameter Ratio: 0.57
[2]; outer droplets, average of at least 50 droplets from CTEM, microfluidic homogenizer N=6, p=130 psi, C=1.0 mM, φ=0.20
  Droplet Diameter (nm): 120 nm
[2]; [6]
  Droplet Diameter (nm): 60 nm
  Inner/Outer Diameter Ratio: 0.45
[2]; ultrasonic homogenization
  smallest double emulsion droplets, diameter: ca. 400 nm
[3]; PDMS silicone oil, microscopy / cryo-TEM
  type of emulsion formed: formation of double emulsions
[3]; dodecane, soybean oil, methyl oleate, 1 mM in water
  emulsification of other immiscible liquids: gave emulsions
[4]
  CAC: 970 nM
[5]; copolypeptide concentration 0.1 mM
  average droplet radius: about 400 nm
[5]; copolypeptide concentration 1.5 mM
  average droplet radius: about 160 nm
